Data published in ChEMBL document CHEMBL2440076, “New triarylpyrazoles as broad-spectrum anticancer agents: design, synthesis, and biological evaluation” (Eur J Med Chem, 2013).

How the values were obtained:
OVCAR-8 = assay: Growth inhibition of human OVCAR8 cells after 48 hrs by sulforhodamine B assay; type: functional; conditions: OVCAR-8, 48 h
IGROV-1 = assay: Growth inhibition of human IGROV1 cells after 48 hrs by sulforhodamine B assay; type: functional; conditions: IGROV-1, 48 h
SK-OV-3 = assay: Growth inhibition of human SKOV3 cells after 48 hrs by sulforhodamine B assay; type: functional; conditions: SK-OV-3, 48 h
SK-MEL-28 = assay: Growth inhibition of human SK-MEL-28 cells after 48 hrs by sulforhodamine B assay; type: functional; conditions: SK-MEL-28, 48 h
HT-29 = assay: Growth inhibition of human HT-29 cells assessed as cell growth at 10 uM after 48 hrs by sulforhodamine B assay; type: functional; conditions: HT-29, 48 h, read-out: Activity
[1] = Growth inhibition of human Hs 578T cells assessed as cell growth at 10 uM after 48 hrs by sulforhodamine B assay; type: functional; conditions: read-out: Activity
UACC-62 = assay: Growth inhibition of human UACC62 cells after 48 hrs by sulforhodamine B assay; type: functional; conditions: UACC-62, 48 h
K562 = assay: Growth inhibition of human K562 cells assessed as cell growth at 10 uM after 48 hrs by sulforhodamine B assay; type: functional; conditions: K562, 48 h, read-out: Activity
U-251 = assay: Growth inhibition of human U251 cells after 48 hrs by sulforhodamine B assay; type: functional; conditions: U-251, 48 h
DU-145 = assay: Growth inhibition of human DU145 cells assessed as cell growth at 10 uM after 48 hrs by sulforhodamine B assay; type: functional; conditions: DU-145, 48 h, read-out: Activity
KM12 = assay: Growth inhibition of human KM12 cells assessed as cell growth at 10 uM after 48 hrs by sulforhodamine B assay; type: functional; conditions: KM12, 48 h, read-out: Activity
COLO 205 = assay: Growth inhibition of human COLO205 cells assessed as cell growth at 10 uM after 48 hrs by sulforhodamine B assay; type: functional; conditions: COLO 205, 48 h, read-out: Activity
HOP-62 = assay: Growth inhibition of human HOP62 cells after 48 hrs by sulforhodamine B assay; type: functional; conditions: HOP-62, 48 h
UACC-257 = assay: Growth inhibition of human UACC257 cells assessed as cell growth at 10 uM after 48 hrs by sulforhodamine B assay; type: functional; conditions: UACC-257, 48 h, read-out: Activity
SN12C = assay: Growth inhibition of human SN12C cells after 48 hrs by sulforhodamine B assay; type: functional
MDA-MB-468 = assay: Growth inhibition of human MDA-MB-468 cells assessed as cell growth at 10 uM after 48 hrs by sulforhodamine B assay; type: functional; conditions: MDA-MB-468, 48 h, read-out: Activity
MOLT-4 [2] = assay: Growth inhibition of human MOLT4 cells assessed as cell growth at 10 uM after 48 hrs by sulforhodamine B assay; type: functional; conditions: MOLT-4, 48 h, read-out: Activity
786-0 = assay: Growth inhibition of human 786-0 cells after 48 hrs by sulforhodamine B assay; type: functional; conditions: 786-0, 48 h
BT-549 = assay: Growth inhibition of human BT549 cells assessed as cell growth at 10 uM after 48 hrs by sulforhodamine B assay; type: functional; conditions: BT-549, 48 h, read-out: Activity
HCT-116 = assay: Growth inhibition of human HCT116 cells assessed as cell growth at 10 uM after 48 hrs by sulforhodamine B assay; type: functional; conditions: HCT-116, 48 h, read-out: Activity
SF-268 = assay: Growth inhibition of human SF268 cells after 48 hrs by sulforhodamine B assay; type: functional; conditions: SF-268, 48 h
ACHN = assay: Growth inhibition of human ACHN cells after 48 hrs by sulforhodamine B assay; type: functional
NCI-H522 = assay: Growth inhibition of human NCI-H522 cells after 48 hrs by sulforhodamine B assay; type: functional; conditions: NCI-H522, 48 h
SR = assay: Growth inhibition of human SR cells after 48 hrs by sulforhodamine B assay; type: functional
MDA-MB-231 = assay: Growth inhibition of human MDA-MB-231 cells assessed as cell growth at 10 uM after 48 hrs by sulforhodamine B assay; type: functional; conditions: MDA-MB-231, 48 h, read-out: Activity
HL-60(TB) = assay: Growth inhibition of human HL-60(TB) cells after 48 hrs by sulforhodamine B assay; type: functional; conditions: HL-60, 48 h
M14 = assay: Growth inhibition of human M14 cells after 48 hrs by sulforhodamine B assay; type: functional; conditions: M14, 48 h
SF-295 = assay: Growth inhibition of human SF295 cells after 48 hrs by sulforhodamine B assay; type: functional, cell-based; conditions: SF-295, 48 h
NCI-H226 = assay: Growth inhibition of human NCI-H226 cells assessed as cell growth at 10 uM after 48 hrs by sulforhodamine B assay; type: functional; conditions: NCI-H226, 48 h, read-out: Activity
SK-MEL-2 = assay: Growth inhibition of human SK-MEL-2 cells after 48 hrs by sulforhodamine B assay; type: functional; conditions: SK-MEL-2, 48 h
MOLT-4 [3] = assay: Growth inhibition of human MOLT4 cells after 48 hrs by sulforhodamine B assay; type: functional; conditions: MOLT-4, 48 h
NCI-H23 = assay: Growth inhibition of human NCI-H23 cells assessed as cell growth at 10 uM after 48 hrs by sulforhodamine B assay; type: functional; conditions: NCI-H23, 48 h, read-out: Activity
TK-10 = assay: Growth inhibition of human TK10 cells assessed as cell growth at 10 uM after 48 hrs by sulforhodamine B assay; type: functional; conditions: TK-10, 48 h, read-out: Activity
MDA-MB-435 = assay: Growth inhibition of human MDA-MB-435 cells assessed as cell growth at 10 uM after 48 hrs by sulforhodamine B assay; type: functional; conditions: MDA-MB-435, 48 h, read-out: Activity
[4] = read-out: LC50 (the source's name)

In the case of COc1cc(-c2nn(-c3cccc(NC(=O)Nc4ccc(Cl)c(Cl)c4)c3)cc2-c2ccncc2)ccc1Cl, the GI50 (OVCAR-8) is reported as 931 nM, the TGI (OVCAR-8) is reported as 3610 nM and the CC50 (OVCAR-8; [4]) is reported as > 50000 nM. The GI50 (IGROV-1) was 1180 nM, the LC50 (concentration killing 50% of cells) (IGROV-1) was > 50000 nM and the TGI (IGROV-1) was 3480 nM. For the same compound, the GI50 (SK-OV-3) was 1930 nM, the TGI (SK-OV-3) was > 50000 nM and the CC50 (SK-OV-3; [4]) was > 50000 nM. The GI50 (SK-MEL-28) was 1430 nM, the LC50 (SK-MEL-28) was > 50000 nM and the TGI (SK-MEL-28) was 7320 nM. The growth at 10 µM (HT-29) was 1.12%, the growth at 10 µM [1] was -6.95% and the GI50 (UACC-62) was 773 nM. The LC50 (50% lethal concentration) (UACC-62) was 4490 nM, the TGI (UACC-62) was 1860 nM and the growth at 10 µM (K562) was 3.63%. The GI50 (U-251) was 820 nM, the LC50 (concentration killing 50% of cells) (U-251) was > 50000 nM and the TGI (U-251) was 2470 nM. The growth at 10 µM (DU-145) was 20%, the growth at 10 µM (KM12) was 1.3% and the growth at 10 µM (COLO 205) was -80.4%. The GI50 (HOP-62) was 1440 nM, the TGI (HOP-62) was 4900 nM and the CC50 (HOP-62; [4]) was > 50000 nM. For the same compound, the growth at 10 µM (UACC-257) was -36.6%, the GI50 (SN12C) was 1470 nM and the TGI (SN12C) was > 50000 nM. For the same compound, the CC50 (SN12C; [4]) was > 50000 nM, the growth at 10 µM (MDA-MB-468) was 2.14% and the growth at 10 µM (MOLT-4 [2]) was -11.1%. For the same compound, the GI50 (786-0) was 1310 nM, the TGI (786-0) was 4470 nM and the CC50 (786-0; [4]) was > 50000 nM. It also gave a growth at 10 µM (BT-549) of 6.23%, a growth at 10 µM (HCT-116) of 8.67% and a GI50 (SF-268) of 1510 nM. For the same compound, the TGI (SF-268) was 20300 nM, the CC50 (SF-268; [4]) was > 50000 nM and the GI50 (ACHN) was 1000 nM. For the same compound, the TGI (ACHN) was > 50000 nM, the CC50 (ACHN; [4]) was > 50000 nM and the GI50 (NCI-H522) was 811 nM. For the same compound, the LC50 (concentration killing 50% of cells) (NCI-H522) was > 50000 nM, the TGI (NCI-H522) was 3100 nM and the GI50 (SR) was 932 nM. For the same compound, the TGI (SR) was 2800 nM, the CC50 (SR; [4]) was > 50000 nM and the growth at 10 µM (MDA-MB-231) was -40.1%. The GI50 (HL-60(TB)) was 1660 nM, the TGI (HL-60(TB)) was > 50000 nM and the CC50 (HL-60(TB); [4]) was > 50000 nM. The GI50 (M14) was 911 nM, the LC50 (concentration killing 50% of cells) (M14) was 41200 nM and the TGI (M14) was 2690 nM. For the same compound, the GI50 (SF-295) was 691 nM, the IC50 (SF-295) was 690 nM and the TGI (SF-295) was 2530 nM. The CC50 (SF-295; [4]) was > 50000 nM, the growth at 10 µM (NCI-H226) was 9.61% and the GI50 (SK-MEL-2) was 1140 nM. For the same compound, the LC50 (50% lethal concentration) (SK-MEL-2) was 4850 nM, the TGI (SK-MEL-2) was 2350 nM and the GI50 (MOLT-4 [3]) was 1100 nM. For the same compound, the TGI (MOLT-4 [3]) was 4480 nM, the CC50 (MOLT-4 [3]; [4]) was > 50000 nM and the growth at 10 µM (NCI-H23) was 1.67%. For the same compound, the growth at 10 µM (TK-10) was 10.9% and the growth at 10 µM (MDA-MB-435) was -45.8%.
